What is called AC50 is the concentration at which the activity in the assay is half-maximal. The EC50 is the concentration at which the effect is half-maximal. The term CC50 denotes the concentration giving 50% cytotoxicity.

Test [1] concerns the target T1, Probable nicotinate-nucleotide adenylyltransferase (Staphylococcus aureus (strain N315), UniProt P65502). In kind it is functional, Staphylococcus aureus subsp. aureus N315. The conditions noted are these: read-out: IC50_Mean.
The nature of test [2]: HepG2 cell cytotoxicity, dose response, cytotoxicity control for Shn3 inhibitor project, CellTiter-Glo, cherry-picked (AID 624134). In kind it is functional, cell-based. Background: In ATP-based viability assays light output follows the ATP content of the culture.
In test [3] the test system is Streptococcus sp. 'group A'. The test is described as follows: growth inhibition of control SK(-) GAS strain, dose response, counter-screen for streptokinase expression inhibitor project, luminescence, kanamycin, BacTiterGlo, confirmation (AID 1900). Format: functional, organism-based. In general terms: The purpose of a counterscreen is to sort out artefacts and off-target activity.

Test [4] in a line: cells. Format: functional, cell-based.
Test [5] addresses T1, Probable nicotinate-nucleotide adenylyltransferase. In kind it is functional, Staphylococcus aureus subsp. aureus N315.
A short description of test [6]: Shn3 3'UTR reporter inhibitors, dose response, cell-based, Clone20 osteoblasts, firefly luciferase, cherry-picked (AID 624132).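 Also: firefly luciferase luminescence from reporter carrying the Shn3 3'UTR in osteoblasts.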 Format: functional.
Test [7] can be described thus: cytotoxicity toward NIH3T3 fibroblasts, dose response, counter-screen, cell-based, ATP luminescence, mouse fibroblasts (AID 2010).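 Also: cells exposed to compound for about 90 hours before reading.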 Format: functional.
Test [8] is described as follows: control 3'UTR Renilla luciferase suppression, dose response, counter-screen for Shn3 inhibitor project, cell-based, Clone20-Shn3RL, cherry-picked (AID 624133). Format: functional.
Test [9] can be described thus: inhibitors of intracellular T. cruzi replication, confirmation, NIH3T3 host cells, beta-gal luminescence (AID 2044).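 Also: intracellular parasites grown in NIH/3T3 mouse fibroblasts as host cells; luminescent beta-galactosidase reporter signal from transgenic T. cruzi replicating inside host cells; inhibitors lower the luminescence signal.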 In kind it is functional, cell-based.
The target of a further test is T2, Streptokinase A (Streptococcus pyogenes serotype M1, UniProt P10520).
T2 sequence (P10520 whole entry): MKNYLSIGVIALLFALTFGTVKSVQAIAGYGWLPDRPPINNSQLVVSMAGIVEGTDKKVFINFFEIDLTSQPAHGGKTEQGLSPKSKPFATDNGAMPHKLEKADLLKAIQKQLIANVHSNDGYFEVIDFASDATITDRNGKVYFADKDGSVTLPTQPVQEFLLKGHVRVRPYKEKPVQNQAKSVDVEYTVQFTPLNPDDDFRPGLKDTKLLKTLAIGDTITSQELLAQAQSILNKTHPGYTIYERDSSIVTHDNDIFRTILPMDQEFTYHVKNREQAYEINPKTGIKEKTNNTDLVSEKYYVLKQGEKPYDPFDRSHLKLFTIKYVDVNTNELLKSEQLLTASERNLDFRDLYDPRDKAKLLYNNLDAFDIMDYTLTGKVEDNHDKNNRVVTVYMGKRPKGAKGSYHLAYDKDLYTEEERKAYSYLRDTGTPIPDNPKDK
The test is described as follows: S. pyogenes streptokinase expression inhibitors, potency, dose response, plasminogen activation absorbance, OD405 (AID 1914).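 Also: secreted streptokinase activity via plasminogen activation per viability signal from cell pellet.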 Format: functional, Streptococcus pyogenes M1 GAS.

In test [10] the target is T3, Type-1 angiotensin II receptor (Homo sapiens, UniProt P30556).
T3 sequence (P30556 whole entry): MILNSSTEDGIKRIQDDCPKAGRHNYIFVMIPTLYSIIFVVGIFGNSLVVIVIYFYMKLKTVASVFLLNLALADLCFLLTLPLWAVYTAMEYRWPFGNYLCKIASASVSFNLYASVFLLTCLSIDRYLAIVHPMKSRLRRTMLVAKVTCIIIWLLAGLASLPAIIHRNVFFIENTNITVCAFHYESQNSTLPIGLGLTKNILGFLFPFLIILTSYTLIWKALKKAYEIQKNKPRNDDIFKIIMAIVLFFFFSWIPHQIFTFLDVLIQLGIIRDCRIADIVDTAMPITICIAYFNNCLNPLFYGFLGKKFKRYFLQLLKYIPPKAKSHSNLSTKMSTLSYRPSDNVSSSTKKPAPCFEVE
The test can be described thus: AT1 receptor agonists, dose response, selectivity assay for APJ receptor agonist project, cell-based, uHTS hits (AID 488865).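 Also: beta-arrestin recruitment to AT1 measured by enzyme fragment complementation luminescence.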 In kind it is functional.

The test system of another test is INS1. The test is described as follows: beta cell apoptosis inhibitors, cytokine rescue, dose response, luminescence, retest (AID 449756).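 Also: cell death triggered by IL-1 beta plus TNF-alpha plus IFN-gamma mixture; protective hits raise ATP signal compared with cytokine alone wells.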 In kind it is functional, cell-based. The conditions noted are these: Rattus norvegicus.
The test system of another test is Streptococcus. The test can be described thus: Group A Streptococcus viability loss, dose response, counter-screen for streptokinase expression inhibitor project, luminescence, BacTiterGlo (AID 1915).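 Also: potency for reduction of bacterial viability or growth.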 Format: functional, organism-based.
Test [11] in a line: cells. Format: functional, cell-based. This is another data set of the same source.
In another test the target is T4, Mucolipin-3 (Homo sapiens, UniProt Q8TDD5).
T4 sequence (Q8TDD5 whole entry): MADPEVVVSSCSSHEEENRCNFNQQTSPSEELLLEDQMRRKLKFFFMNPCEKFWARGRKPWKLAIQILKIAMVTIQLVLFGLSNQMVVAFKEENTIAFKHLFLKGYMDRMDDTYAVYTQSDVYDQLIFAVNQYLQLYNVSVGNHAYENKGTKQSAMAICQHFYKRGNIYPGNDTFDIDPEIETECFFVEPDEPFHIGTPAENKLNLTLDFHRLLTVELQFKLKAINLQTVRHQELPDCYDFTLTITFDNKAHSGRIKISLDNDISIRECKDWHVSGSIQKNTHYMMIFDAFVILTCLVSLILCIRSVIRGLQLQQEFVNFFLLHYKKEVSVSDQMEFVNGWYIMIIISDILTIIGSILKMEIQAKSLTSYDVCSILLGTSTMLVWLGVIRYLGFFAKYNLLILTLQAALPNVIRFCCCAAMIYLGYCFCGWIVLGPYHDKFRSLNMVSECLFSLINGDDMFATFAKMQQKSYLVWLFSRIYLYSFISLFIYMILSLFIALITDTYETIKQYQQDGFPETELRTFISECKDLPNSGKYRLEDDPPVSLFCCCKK
The test is described as follows: Fluorescence counterscreen assay for […] agonists: dose response cell-based high-throughput screening assay to identify agonists of the transient receptor potential channel ML3 (TRPML3). [Related pubchem assays: 1424, 1448 ]. In kind it is functional.

Test [12] can be described thus: HEp-2 cell cytotoxicity, dose response, cytotoxicity control for RSV inhibitor project, HTS (AID 2410). Format: functional. The settings on record: human respiratory syncytial virus.
The next test has as its target Ion channel NompC (Danio rerio, UniProt Q7T1G6). The test is described as follows: Dose response cell-based high-throughput screening assay for agonists of the transient receptor potential channel N1 (TRPN1). [Related pubchem assays (depositor defined):AID1424, AID1448]. Format: functional.
The target in test [13] is T5, Kappa-type opioid receptor (Homo sapiens, UniProt P41145). Format: functional.
T5 sequence (P41145 whole entry): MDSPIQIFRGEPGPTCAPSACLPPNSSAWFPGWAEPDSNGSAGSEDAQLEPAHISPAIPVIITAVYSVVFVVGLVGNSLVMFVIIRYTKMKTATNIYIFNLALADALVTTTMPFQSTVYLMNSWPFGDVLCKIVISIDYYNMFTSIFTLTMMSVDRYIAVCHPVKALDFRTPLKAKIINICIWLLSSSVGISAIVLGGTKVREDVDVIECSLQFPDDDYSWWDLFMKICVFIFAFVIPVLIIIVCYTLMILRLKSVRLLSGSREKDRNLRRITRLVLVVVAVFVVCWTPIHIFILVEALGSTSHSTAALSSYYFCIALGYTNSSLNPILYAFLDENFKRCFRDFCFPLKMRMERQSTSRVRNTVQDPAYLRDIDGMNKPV
The next test concerns the target Mu-type opioid receptor (Homo sapiens, UniProt P35372). The test is described as follows: HTS Image-Based Screen for Agonists of the MOR Receptor. [Related pubchem assays (depositor defined):AID1777, AID1785, AID1786, AID2133]. Format: functional.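 Also: imaging of beta-arrestin GFP recruitment into spots after receptor activation.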
Test [14] deals with T6, Delta-type opioid receptor (Homo sapiens, UniProt P41143). The test is described as follows: HTS Image-Based Screen for Agonists of the DOR Receptor. [Related pubchem assays (depositor defined):AID1777, AID1786, AID2133]. Format: functional.
T6 sequence (P41143 whole entry): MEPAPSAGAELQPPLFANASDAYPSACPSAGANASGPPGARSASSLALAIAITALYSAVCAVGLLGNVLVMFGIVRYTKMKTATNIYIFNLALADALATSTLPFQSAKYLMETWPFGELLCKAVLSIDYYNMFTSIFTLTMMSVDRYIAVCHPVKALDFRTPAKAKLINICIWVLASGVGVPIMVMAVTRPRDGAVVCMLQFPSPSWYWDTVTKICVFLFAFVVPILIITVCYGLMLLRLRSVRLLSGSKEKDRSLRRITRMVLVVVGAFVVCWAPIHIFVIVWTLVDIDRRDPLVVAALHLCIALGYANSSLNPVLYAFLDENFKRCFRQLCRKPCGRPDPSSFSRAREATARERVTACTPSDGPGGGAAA
Test [15] addresses T6, Delta-type opioid receptor. The test is described as follows: HTS Image-Based Screen for Antagonists of the DOR Receptor. [Related pubchem assays (depositor defined):AID1777, AID1785, AID1786, AID2133]. In kind it is functional.
Test [16] concerns the target T5, Kappa-type opioid receptor. Format: functional. This is another data set of the same source.
A further test concerns the target Beta-galactosidase (Escherichia coli, UniProt Q8VNN2). Format: functional.

The structures appear in SMILES notation. The source made the active and inactive calls.
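For IC50 Mean in this document: confirmatory dose-response retesting of NadD inhibitor hits first found in an ultra-high-throughput screen.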

T1 sequence (P65502 whole entry): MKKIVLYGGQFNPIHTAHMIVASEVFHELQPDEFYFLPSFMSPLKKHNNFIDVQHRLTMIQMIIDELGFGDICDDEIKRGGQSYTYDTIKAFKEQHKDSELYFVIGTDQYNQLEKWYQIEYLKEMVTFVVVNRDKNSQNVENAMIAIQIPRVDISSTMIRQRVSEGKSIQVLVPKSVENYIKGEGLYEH
Chain of Beta-galactosidase (Q8VNN2 whole entry): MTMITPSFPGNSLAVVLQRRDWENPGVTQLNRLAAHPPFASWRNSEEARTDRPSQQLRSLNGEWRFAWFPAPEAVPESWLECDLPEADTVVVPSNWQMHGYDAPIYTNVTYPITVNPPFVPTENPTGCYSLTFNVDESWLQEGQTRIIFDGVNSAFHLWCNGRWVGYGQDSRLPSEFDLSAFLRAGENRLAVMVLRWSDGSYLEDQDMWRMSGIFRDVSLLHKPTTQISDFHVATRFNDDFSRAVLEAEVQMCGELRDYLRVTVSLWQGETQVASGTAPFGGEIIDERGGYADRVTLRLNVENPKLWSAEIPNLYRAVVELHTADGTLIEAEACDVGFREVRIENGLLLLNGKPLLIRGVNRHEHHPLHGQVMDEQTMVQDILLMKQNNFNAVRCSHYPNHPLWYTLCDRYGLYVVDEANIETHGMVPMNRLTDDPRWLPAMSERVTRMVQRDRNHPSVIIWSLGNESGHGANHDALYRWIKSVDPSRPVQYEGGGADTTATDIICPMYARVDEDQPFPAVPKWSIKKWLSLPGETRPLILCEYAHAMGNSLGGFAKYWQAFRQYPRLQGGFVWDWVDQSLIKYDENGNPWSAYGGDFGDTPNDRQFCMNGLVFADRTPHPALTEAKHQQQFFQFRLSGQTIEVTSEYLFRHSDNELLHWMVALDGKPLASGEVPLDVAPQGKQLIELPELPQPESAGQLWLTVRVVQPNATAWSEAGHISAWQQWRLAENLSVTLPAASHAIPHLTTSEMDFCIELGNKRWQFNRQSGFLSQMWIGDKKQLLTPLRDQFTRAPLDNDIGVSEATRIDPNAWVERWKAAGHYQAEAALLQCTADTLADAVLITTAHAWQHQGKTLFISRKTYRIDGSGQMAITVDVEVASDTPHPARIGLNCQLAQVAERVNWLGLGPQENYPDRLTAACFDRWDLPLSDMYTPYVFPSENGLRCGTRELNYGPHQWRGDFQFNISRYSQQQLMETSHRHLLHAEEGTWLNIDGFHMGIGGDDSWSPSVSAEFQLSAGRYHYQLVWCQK
Chain of Ion channel NompC (Q7T1G6 whole entry): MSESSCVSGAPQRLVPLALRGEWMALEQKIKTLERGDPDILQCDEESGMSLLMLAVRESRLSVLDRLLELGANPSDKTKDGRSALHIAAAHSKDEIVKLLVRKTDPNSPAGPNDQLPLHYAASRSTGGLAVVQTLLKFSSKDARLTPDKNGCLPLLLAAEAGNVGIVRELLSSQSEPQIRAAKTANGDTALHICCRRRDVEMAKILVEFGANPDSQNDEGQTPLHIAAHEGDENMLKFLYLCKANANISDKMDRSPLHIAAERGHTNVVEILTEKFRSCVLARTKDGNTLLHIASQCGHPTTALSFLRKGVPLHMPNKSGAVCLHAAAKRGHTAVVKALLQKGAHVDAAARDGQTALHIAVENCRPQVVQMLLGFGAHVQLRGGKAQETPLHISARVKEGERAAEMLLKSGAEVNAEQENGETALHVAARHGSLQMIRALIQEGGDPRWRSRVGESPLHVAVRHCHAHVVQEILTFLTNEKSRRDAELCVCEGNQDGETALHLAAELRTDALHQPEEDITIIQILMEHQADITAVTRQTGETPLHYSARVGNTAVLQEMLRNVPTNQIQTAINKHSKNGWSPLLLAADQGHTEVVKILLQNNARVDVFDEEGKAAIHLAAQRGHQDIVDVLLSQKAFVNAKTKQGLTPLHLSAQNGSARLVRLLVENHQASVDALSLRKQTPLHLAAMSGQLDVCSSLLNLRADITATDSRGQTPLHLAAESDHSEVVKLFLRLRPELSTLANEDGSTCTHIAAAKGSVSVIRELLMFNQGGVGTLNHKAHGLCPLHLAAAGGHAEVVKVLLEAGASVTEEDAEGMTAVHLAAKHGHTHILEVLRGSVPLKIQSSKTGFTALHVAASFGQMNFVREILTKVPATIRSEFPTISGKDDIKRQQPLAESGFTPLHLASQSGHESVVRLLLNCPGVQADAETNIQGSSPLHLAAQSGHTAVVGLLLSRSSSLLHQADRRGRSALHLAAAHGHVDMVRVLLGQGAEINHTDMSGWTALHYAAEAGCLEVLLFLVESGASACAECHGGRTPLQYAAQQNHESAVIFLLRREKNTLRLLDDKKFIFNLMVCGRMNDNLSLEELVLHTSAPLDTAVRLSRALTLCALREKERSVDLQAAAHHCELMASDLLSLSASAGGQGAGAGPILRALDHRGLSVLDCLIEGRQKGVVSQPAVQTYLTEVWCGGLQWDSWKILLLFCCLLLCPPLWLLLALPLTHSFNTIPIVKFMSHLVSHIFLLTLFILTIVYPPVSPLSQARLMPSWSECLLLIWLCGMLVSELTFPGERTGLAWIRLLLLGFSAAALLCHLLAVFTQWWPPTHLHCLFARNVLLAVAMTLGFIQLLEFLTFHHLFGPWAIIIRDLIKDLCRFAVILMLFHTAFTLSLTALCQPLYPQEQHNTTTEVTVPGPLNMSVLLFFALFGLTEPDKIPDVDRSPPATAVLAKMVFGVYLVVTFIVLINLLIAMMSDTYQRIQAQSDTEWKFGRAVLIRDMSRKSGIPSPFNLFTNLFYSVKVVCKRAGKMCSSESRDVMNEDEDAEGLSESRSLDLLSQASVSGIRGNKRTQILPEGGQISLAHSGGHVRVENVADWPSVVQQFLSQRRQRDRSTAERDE
Chain of Mu-type opioid receptor (P35372 whole entry): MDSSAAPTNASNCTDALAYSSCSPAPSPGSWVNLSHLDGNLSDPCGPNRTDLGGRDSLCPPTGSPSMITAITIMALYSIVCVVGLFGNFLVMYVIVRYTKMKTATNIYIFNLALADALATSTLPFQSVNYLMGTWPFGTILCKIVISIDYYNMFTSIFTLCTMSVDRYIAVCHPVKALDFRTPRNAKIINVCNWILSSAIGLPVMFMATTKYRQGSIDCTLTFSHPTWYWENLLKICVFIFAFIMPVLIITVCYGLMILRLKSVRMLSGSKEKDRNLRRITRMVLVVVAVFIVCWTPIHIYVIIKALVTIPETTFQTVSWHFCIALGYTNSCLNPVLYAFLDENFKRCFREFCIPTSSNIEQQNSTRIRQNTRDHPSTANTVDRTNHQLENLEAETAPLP

On to `Cc1cc(C)c2nc(NNC(=O)c3ccc(S(=O)(=O)N4CCc5ccccc5C4)cc3)sc2c1`, for which the IC50 is 38.1 µM (active) in [1] and 7.18 µM (active) in test [5]. Besides, the AC50 in test [2] was 2.91 µM (active); in [6], 1.98 µM (active); in [8] it was 3.35 µM (active); with INS1, 2.19 µM (active). The EC50 in [3] is 0.458 µM (active); in the test “cells [4]”, 7.06 µM (active); in test [7] it was < 6 µM (inconclusive); in [9], 0.661 µM (active); on Streptokinase A, > 150 µM (not active); in [10], > 100 µM (inactive). For the same molecule, the values for the EC50 in the test on Streptococcus and in the test “cells [11]” were 61.5 µM (inconclusive) and > 350 µM (not active), respectively.
With `COc1ccccc1CC(=O)Nc1ccc([N+](=O)[O-])cc1O`, the EC50 is > 29.9 µM (not active) on Mucolipin-3 and > 29.9 µM (inactive) at Ion channel NompC. The CC50 in test [12] is 27.7 µM (active).
Take `Cc1ccc(CN2C3CCCC2CC(NC(=O)c2ccc(F)cc2)C3)cc1` (stereo not drawn): the IC50 in test [13] is 7.7 µM (active); in [15], > 32 µM (inactive); in [16] it was 3.7 µM. Moreover, the EC50 is > 32 µM (inactive) at Mu-type opioid receptor, > 32 µM (inactive) in test [14] and > 31.5 µM (inactive) on Beta-galactosidase.
